# Target: Dihydrofolate reductase (Lactobacillus casei) (UniProt P00381)
# Settings: Lacticaseibacillus casei
# Description: Inhibitory activity against Lactobacillus casei dihydrofolate reductase (DHFR)
# Dihydrofolate reductase (Lactobacillus casei), sequence (P00381 whole entry): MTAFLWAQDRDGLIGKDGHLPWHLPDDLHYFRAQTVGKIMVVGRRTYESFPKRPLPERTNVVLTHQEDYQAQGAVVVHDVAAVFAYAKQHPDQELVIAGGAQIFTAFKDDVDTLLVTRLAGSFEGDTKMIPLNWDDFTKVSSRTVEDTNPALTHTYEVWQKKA
row,log 1/Ki app,Structure (SMILES)
1,5.44,CC1(C)N=C(N)N=C(N)N1c1cccc(COc2ccccc2)c1
2,5.41,CC(C)c1cccc(OCc2cccc(N3C(N)=NC(N)=NC3(C)C)c2)c1
3,5.31,CC1(C)N=C(N)N=C(N)N1c1cccc(COc2cccc(C#N)c2)c1
4,5.45,CC(=O)Nc1cccc(OCc2cccc(N3C(N)=NC(N)=NC3(C)C)c2)c1
5,4.41,CC1(C)N=C(N)N=C(N)N1c1cccc(OCc2ccc(Cl)c(Cl)c2)c1
6,4.2,CCCCOc1cccc(N2C(N)=NC(N)=NC2(C)C)c1
7,4.36,CC1(C)N=C(N)N=C(N)N1c1cccc(COc2cccc(NC(=N)S)c2)c1
8,5.45,CC1(C)N=C(N)N=C(N)N1c1cccc(COc2cccc(CO)c2)c1
9,5.44,CC(C)(C)c1cccc(OCc2cccc(N3C(N)=NC(N)=NC3(C)C)c2)c1
10,5.36,CC1(C)N=C(N)N=C(N)N1c1cccc(COc2cccc(NC(N)=O)c2)c1
11,5.56,COc1cccc(OCc2cccc(N3C(N)=NC(N)=NC3(C)C)c2)c1
12,4.2,CC1(C)N=C(N)N=C(N)N1c1cccc(OCc2ccccc2)c1
13,5.31,CCc1cccc(OCc2cccc(N3C(N)=NC(N)=NC3(C)C)c2)c1
14,5.33,Cc1cccc(OCc2cccc(N3C(N)=NC(N)=NC3(C)C)c2)c1
15,5.41,CC1(C)N=C(N)N=C(N)N1c1cccc(COc2cccc(Cl)c2)c1

# Further lines, the compound ahead of its results:
row,Structure (SMILES),log 1/Ki app
1,CC1(C)N=C(N)N=C(N)N1c1cccc(CNc2cc(C(N)=O)cc(C(N)=O)c2)c1,4.74
2,CC(C)(C)c1cccc(N2C(N)=NC(N)=NC2(C)C)c1,3.2
3,CC1(C)N=C(N)N=C(N)N1c1cccc(Br)c1,3.69
4,CC1(C)N=C(N)N=C(N)N1c1cccc(OCCCCOc2cccc(C(F)(F)F)c2)c1,4.79
5,CCCCCCCCCCCCCOc1cccc(N2C(N)=NC(N)=NC2(C)C)c1,4.81
6,CC1(C)N=C(N)N=C(N)N1c1cccc(OCCCCOc2ccccc2)c1,4.79
7,CCCCCCCCCCCOc1cccc(N2C(N)=NC(N)=NC2(C)C)c1,4.54
8,CCCCCCCCCOc1cccc(N2C(N)=NC(N)=NC2(C)C)c1,4.71
9,CC1(C)N=C(N)N=C(N)N1c1cccc(OCCOc2cccc(C(F)(F)F)c2)c1,4.1
10,CC1(C)N=C(N)N=C(N)N1c1cccc(F)c1,3.29
11,CC1(C)N=C(N)N=C(N)N1c1cccc(S(=O)(=O)F)c1,3.21
12,CCCCCCCCCCCCOc1cccc(N2C(N)=NC(N)=NC2(C)C)c1,4.63
13,CC(=O)c1cccc(N2C(N)=NC(N)=NC2(C)C)c1,2.87
14,CCCCCCc1cccc(N2C(N)=NC(N)=NC2(C)C)c1,4.96
15,CC1(C)N=C(N)N=C(N)N1c1cccc(OCCOc2ccccc2)c1,3.74
16,CCOC(=O)c1cccc(N2C(N)=NC(N)=NC2(C)C)c1,3.21
17,CCCCCCCCCCCCCCOc1cccc(N2C(N)=NC(N)=NC2(C)C)c1,4.5
18,CC1(C)N=C(N)N=C(N)N1c1cccc([N+](=O)[O-])c1,3.56
19,CC1(C)N=C(N)N=C(N)N1c1cccc(I)c1,3.73
20,Cc1cccc(N2C(N)=NC(N)=NC2(C)C)c1,3.07
